Data set [1] concerns Rattus norvegicus.
The subject of data set [2] is Anas platyrhynchos. To be noted: short-term; oral; feed; mortality.
Data set [3] relates to Canidae. To be noted: chronic; duration: 1 years; oral; Dog Other; histopathology: nonneoplastic.
The test system of data set [4] is Colinus virginianus. Particulars: for LD50: acute, oral, mortality.

Turning to `Cc1nn(C)c(F)c1C(=O)Nc1ccccc1C(C)CC(C)C` (stereo not given) [Penflufen], the NOAEL stood at 50 mg/kg-day in data set [1] (acute, oral, F, clinical signs); 4 mg/kg-day in data set [1] (chronic, duration: 2 years, histopathology: nonneoplastic); 71 mg/kg-day in data set [1] (reproduction developmental, F, reproduction); 58 mg/kg-day in data set [1] (reproduction developmental, M, reproduction); 7.7 mg/kg-day in data set [3]. For the same molecule, the LD50 in data set [1] (acute, oral, mortality) is more than 2000 mg/kg-day; in data set [2] it was more than 2210 mg/kg-day; in data set [4] (diet), more than 1700 mg/kg-day; in data set [4] it was more than 4000 mg/kg-day. Also, the NOEL in data set [4] (reproduction developmental) stood at 96 mg/kg-day.

The NOAEL is the highest dose or exposure tested at which no adverse effect was seen.

(Values after EPA's ToxValDB 9.5 (doi:10.2903/j.efsa.2012.2860).)
